From PubChem BioAssay (NCI)
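Assay format: 96-well plates, 48-hour exposure. GI50 marks 50% less growth. TGI is the concentration that stops growth completely.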

What was measured:
Test in all cases: NCI-60 cell line screen, 48 h; in the data active = GI50 below about 0.43 µM; inactive = the rest
BT-549 breast = system: BT-549 breast
CCRF-CEM leukemia = system: CCRF-CEM leukemia
HOP-62 NSCLC = system: HOP-62 NSCLC
MDA-MB-231 breast = system: MDA-MB-231 breast
NCI-H522 lung = system: NCI-H522 lung
NCI/ADR-RES ovarian = system: NCI/ADR-RES ovarian
RXF 393 renal = system: RXF 393 renal
SK-MEL-2 melanoma = system: SK-MEL-2 melanoma
SNB-19 CNS = system: SNB-19 CNS
TK-10 renal = system: TK-10 renal
U251 CNS = system: U251 CNS

COc1c2occc2cc2ccc(=O)oc12
inactive: GI50 (NCI-H522 lung) > 100 µM | GI50 (NCI/ADR-RES ovarian) > 100 µM | GI50 (RXF 393 renal) > 100 µM
> 100 µM: TGI (BT-549 breast) | TGI (CCRF-CEM leukemia) | TGI (HOP-62 NSCLC) | TGI (MDA-MB-231 breast) | TGI (NCI-H522 lung) | TGI (NCI/ADR-RES ovarian) | TGI (RXF 393 renal) | TGI (SK-MEL-2 melanoma) | TGI (SNB-19 CNS) | TGI (TK-10 renal) | TGI (U251 CNS)

CCOC(=O)C1=C(C)N(C2OC(COC(C)=O)C(OC(C)=O)C(OC(C)=O)C2OC(C)=O)C(=O)NC1c1ccccc1 (configuration not stated)
> 100 µM: TGI (CCRF-CEM leukemia) | TGI (HOP-62 NSCLC) | TGI (SK-MEL-2 melanoma) | TGI (SNB-19 CNS) | TGI (U251 CNS)
63.4 µM: TGI (NCI-H522 lung)

C=CCOC1OC(CS(=O)(=O)O)C(OC(C)=O)C(OC(C)=O)C1OC(C)=O (configuration not stated)
> 100 µM: TGI (BT-549 breast) | TGI (CCRF-CEM leukemia) | TGI (HOP-62 NSCLC) | TGI (NCI/ADR-RES ovarian) | TGI (RXF 393 renal) | TGI (SK-MEL-2 melanoma) | TGI (SNB-19 CNS) | TGI (TK-10 renal) | TGI (U251 CNS)

CCCCCCCCCC[N+](C)(C)C
5.11 µM: TGI (NCI-H522 lung)
49.6 µM: TGI (NCI/ADR-RES ovarian)
2.29 µM: TGI (U251 CNS)
2.32 µM: TGI (CCRF-CEM leukemia)
3.27 µM: TGI (TK-10 renal)
6.61 µM: TGI (SK-MEL-2 melanoma)
4.38 µM: TGI (MDA-MB-231 breast)
3.07 µM: TGI (HOP-62 NSCLC)
inactive: GI50 (CCRF-CEM leukemia) 0.739 µM | GI50 (HOP-62 NSCLC) 1.18 µM | GI50 (MDA-MB-231 breast) 1.59 µM | GI50 (NCI-H522 lung) 1.7 µM | GI50 (NCI/ADR-RES ovarian) 15.1 µM | GI50 (SK-MEL-2 melanoma) 2.41 µM | GI50 (TK-10 renal) 1.42 µM | GI50 (U251 CNS) 1.04 µM

c1ccc(N2N=C3N(c4ccccc4)C2N3c2ccccc2)cc1
> 100 µM: TGI (BT-549 breast) | TGI (HOP-62 NSCLC) | TGI (MDA-MB-231 breast) | TGI (NCI/ADR-RES ovarian) | TGI (RXF 393 renal) | TGI (SNB-19 CNS) | TGI (TK-10 renal) | TGI (U251 CNS)
71.8 µM: TGI (CCRF-CEM leukemia)
73 µM: TGI (SK-MEL-2 melanoma)
56.1 µM: TGI (NCI-H522 lung)

COc1ccc(OCC(C)(C)O)cc1
> 100 µM: TGI (CCRF-CEM leukemia) | TGI (HOP-62 NSCLC) | TGI (NCI/ADR-RES ovarian) | TGI (RXF 393 renal) | TGI (SK-MEL-2 melanoma) | TGI (SNB-19 CNS) | TGI (U251 CNS)

CC(=O)OCc1nnn2c1CCC2
> 100 µM: TGI (CCRF-CEM leukemia) | TGI (HOP-62 NSCLC) | TGI (NCI-H522 lung) | TGI (RXF 393 renal) | TGI (SK-MEL-2 melanoma) | TGI (TK-10 renal) | TGI (U251 CNS)

CCCCn1c(C)c2c(c1C)C(=O)N(CCN1CCN(c3ccccc3Cl)CC1)C2=O
> 100 µM: TGI (MDA-MB-231 breast) | TGI (NCI/ADR-RES ovarian) | TGI (SNB-19 CNS) | TGI (TK-10 renal) | TGI (U251 CNS)
49 µM: TGI (SK-MEL-2 melanoma)
41.7 µM: TGI (BT-549 breast)
93.3 µM: TGI (HOP-62 NSCLC)
78.7 µM: TGI (NCI-H522 lung)
75.7 µM: TGI (CCRF-CEM leukemia)

CCCCCCC(=O)c1ccc2ccccc2c1O
67.5 µM: TGI (SK-MEL-2 melanoma)
> 100 µM: TGI (BT-549 breast) | TGI (CCRF-CEM leukemia) | TGI (HOP-62 NSCLC) | TGI (MDA-MB-231 breast) | TGI (NCI/ADR-RES ovarian) | TGI (SNB-19 CNS) | TGI (TK-10 renal) | TGI (U251 CNS)
74.4 µM: TGI (RXF 393 renal)

CCOC(=O)/C=C/c1c[nH]c(=O)[nH]c1=O
> 75 µM: TGI (CCRF-CEM leukemia) | TGI (HOP-62 NSCLC) | TGI (NCI-H522 lung) | TGI (NCI/ADR-RES ovarian) | TGI (RXF 393 renal) | TGI (SK-MEL-2 melanoma) | TGI (SNB-19 CNS) | TGI (U251 CNS)

COc1ccc(-c2c3c(nc4[nH]c(=S)[nH]c(=S)c24)CCCC3)cc1OC
57.9 µM: TGI (RXF 393 renal)
> 100 µM: TGI (BT-549 breast) | TGI (HOP-62 NSCLC) | TGI (MDA-MB-231 breast) | TGI (SNB-19 CNS) | TGI (TK-10 renal)
73.1 µM: TGI (CCRF-CEM leukemia)
66.1 µM: TGI (NCI/ADR-RES ovarian)
39.6 µM: TGI (U251 CNS)
